The target in one test is hCB2 WT (Homo sapiens, UniProt P34972). Kind of test: Saturation-binding assay with [^3H]-CP55940. Particulars: HEK293 membranes; mean (95% CI).
A further test has as its target hCB2 C1.39(40)S (Homo sapiens, UniProt P34972, C40S). Kind of test: Saturation-binding assay with [^3H]-CP55940. Particulars: HEK293 membranes, mean (95% CI).
In another test the target is hCB2 C137S (Homo sapiens, UniProt P34972, C134S). Put plainly: Saturation-binding assay with [^3H]-CP55940. Particulars: HEK293 membranes; mean (95% CI).
Chain of hCB2 C137S (P34972 whole entry C134S): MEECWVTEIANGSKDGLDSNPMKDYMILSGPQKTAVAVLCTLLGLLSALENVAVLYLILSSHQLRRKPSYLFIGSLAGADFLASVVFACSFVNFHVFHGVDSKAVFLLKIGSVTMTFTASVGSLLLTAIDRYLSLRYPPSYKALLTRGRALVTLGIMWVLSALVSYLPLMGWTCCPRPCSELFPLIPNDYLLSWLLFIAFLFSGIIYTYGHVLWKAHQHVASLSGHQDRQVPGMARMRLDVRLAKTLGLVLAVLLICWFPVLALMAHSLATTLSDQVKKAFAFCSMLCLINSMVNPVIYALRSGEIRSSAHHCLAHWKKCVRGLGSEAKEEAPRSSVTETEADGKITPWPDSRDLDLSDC
A further test addresses hCB2 C175S (Homo sapiens, UniProt P34972, C175S). Kind of test: Saturation-binding assay with [^3H]-CP55940. Particulars: HEK293 membranes; mean (95% CI).
A further test has as its target hCB2 C6.47(257)S (Homo sapiens, UniProt P34972, C257S). Put plainly: Saturation-binding assay with [^3H]-CP55940. Particulars: HEK293 membranes; mean (95% CI).
For the next test, the target named is hCB2 C7.38(284)A (Homo sapiens, UniProt P34972, C284A). Put plainly: Saturation-binding assay with [^3H]-CP55940. Particulars: HEK293 membranes; mean (95% CI).
Chain of hCB2 C7.38(284)A (P34972 whole entry C284A): as the sequence (P34972 whole entry C134S) above, with S134C, C284A counted along it
The target of a further test is hCB2 C7.38(284)S (Homo sapiens, UniProt P34972, C284S). Kind of test: Saturation-binding assay with [^3H]-CP55940. Particulars: HEK293 membranes; mean (95% CI).
Chain of hCB2 C7.38(284)S (P34972 whole entry C284S): as the sequence (P34972 whole entry C134S) above, with S134C, C284S counted along it
Another test deals with hCB2 C7.42(288)A (Homo sapiens, UniProt P34972, C288A). Kind of test: Saturation-binding assay with [^3H]-CP55940. Particulars: HEK293 membranes; mean (95% CI).
Chain of hCB2 C7.42(288)A (P34972 whole entry C288A): as the sequence (P34972 whole entry C134S) above, with S134C, C288A counted along it
The next test addresses hCB2 C7.42(288)S (Homo sapiens, UniProt P34972, C288S). Kind of test: Saturation-binding assay with [^3H]-CP55940. Particulars: HEK293 membranes; mean (95% CI).
Test [1] addresses hCB2 C7.38(284)7.42(288)A (Homo sapiens, UniProt P34972, C284A/C288A). Kind of test: Saturation-binding assay with [^3H]-CP55940. Particulars: HEK293 membranes; mean (95% CI).
Test [2] concerns the target hCB2 C7.38(284)7.42(288)S (Homo sapiens, UniProt P34972, C284S/C288S). Kind of test: Saturation-binding assay with [^3H]-CP55940. Particulars: HEK293 membranes; mean (95% CI).
The next test deals with hCB2 C313S (Homo sapiens, UniProt P34972, C313S). Put plainly: Saturation-binding assay with [^3H]-CP55940. Particulars: HEK293 membranes; mean (95% CI).
Chain of hCB2 C313S (P34972 whole entry C313S): as the sequence (P34972 whole entry C134S) above, with S134C, C313S counted along it
The next test concerns hCB2 C6.47(257)S mutant. Particulars: competitive binding with [^3H]-WIN55212-2; ref Pei et al., 2008; cited from earlier work.
A further test addresses hCB2. Particulars: read-out: hCB2 Ki; ref Rinaldi-Carmona et al., 1998; cited from earlier work.

Consider two compounds from publication PMC3023919 (Chemistry & biology, 2010).

Chain of hCB2 C1.39(40)S (P34972 whole entry C40S): as the sequence (P34972 whole entry C134S) above, with C40S, S134C counted along it
Chain of hCB2 C175S (P34972 whole entry C175S): as the sequence (P34972 whole entry C134S) above, with S134C, C175S counted along it
Chain of hCB2 C7.38(284)7.42(288)A (P34972 whole entry C284A/C288A): as the sequence (P34972 whole entry C134S) above, with S134C, C284A, C288A counted along it
Chain of hCB2 C7.42(288)S (P34972 whole entry C288S): as the sequence (P34972 whole entry C134S) above, with S134C, C288S counted along it
Chain of hCB2 WT (P34972 whole entry): as the sequence (P34972 whole entry C134S) above, with S134C counted along it
Chain of hCB2 C7.38(284)7.42(288)S (P34972 whole entry C284S/C288S): as the sequence (P34972 whole entry C134S) above, with S134C, C284S, C288S counted along it
Chain of hCB2 C6.47(257)S (P34972 whole entry C257S): as the sequence (P34972 whole entry C134S) above, with S134C, C257S counted along it

With `CCCCCCC(C)(C)c1ccc([C@@H]2C[C@H](O)CC[C@H]2CCCO)c(O)c1` [[^3H]-CP55940], the “[^3H]-CP55940 Bmax” value on hCB2 WT is 1.68 (1.61~1.74) pmol/mg; at hCB2 C1.39(40)S, 5.45 (4.99~5.92) pmol/mg; on hCB2 C1.39(40)S (listed as CP55940), 5.45 pmol/mg; at hCB2 C137S, 1.50 (1.31~1.70) pmol/mg; on hCB2 C175S, 1.69 (1.61~1.78) pmol/mg; at hCB2 C6.47(257)S, 1.58 (1.50~1.66) pmol/mg. For the same compound, the “[^3H]-CP55940 Bmax” value at hCB2 C7.38(284)A is recorded as 1.15 (1.03~1.26) pmol/mg; at hCB2 C7.38(284)S, 1.28 (1.21~1.36) pmol/mg; on hCB2 C7.42(288)A, 1.93 (1.69~2.17) pmol/mg; on hCB2 C7.42(288)S it was 1.07 (1.01~1.13) pmol/mg; in test [1] it was 1.12 (1.04~1.20) pmol/mg; in [2] it was 1.38 (1.28~1.48) pmol/mg. Also, the “[^3H]-CP55940 Bmax” value at hCB2 C313S is on record as 1.07 (1.01~1.13) pmol/mg.
For orientation: Ki means a measure of affinity in units of concentration, obtained from inhibition or displacement. As to SR144528, the “increased affinity relative to WT hCB2” value with hCB2 C6.47(257)S mutant was 2-3 fold. Besides, the Ki on hCB2 was 0.6 nM.
